Experiments:
[1] = system: PP1/2A; assay: FRET-based phosphatase activity assay in PP1/2A buffer; format: biochemical; conditions: FIG. 9
From the text: FIG. 8 is a graph showing that in the PP1A/2A buffer, a linear range of phosphatase activity not attributable to calcineurin activity was detected.
(§1) Okadaic acid is a known inhibitor if PP1/2A.

[2] = system: Calcineurin; assay: FRET-based calcineurin activity assay with okadaic acid; format: biochemical; conditions: similar range of okadaic acid; FIG. 9
Description: as §1
2. Calcineurin activity was assessed by mixing equal parts lysate, RII or other peptide sample), and reacted for 5-10 mins at 30° C. Control reactions were included that contained known varying amounts of purified calcineurin to calculate a standard curve for each plate.
3. To stop the reaction, a solution of 10% acetyl nitrile and 0.01% acetic acid solution was added. This step was essential to reduce the pH of the reaction to below 3.5 and enable the binding of the titanium oxide beads to the target peptide.
4. FLUOR-titanium oxide beads were added with gentle shaking for 5 mins. Phosphorylated-peptides were retained on the beads producing a “shifted” TAMRA signal while non-phosphorylated peptides were unbound.
5. Reactions were neutralized with 0.35% ammonium hydroxide to return the pH to greater than 7 and the fluorescence of each sample will be read at 450 nm excitation/580 nm emission.
6. Calcineurin activity was then determined by calculating the slope and y-intercept of the standard curve and then extrapolating calcineurin activity from the fluorescence intensity.

`C=C1[C@@H](O)[C@@H]2O[C@]3(CC[C@H](/C=C/[C@@H](C)[C@@H]4CC(C)=C[C@@]5(O[C@H](C[C@@](C)(O)C(=O)O)CC[C@H]5O)O4)O3)CC[C@H]2O[C@@H]1[C@@H](O)C[C@H](C)[C@H]1O[C@@]2(CCCCO2)CC[C@H]1C` [okadaic acid] was tested, and the “phosphatase activity detected in the PP1/2A buffer, inhibition” value [1] was “sensitive to inhibition with okadaic acid, in a dose-dependent fashion” and the “calcineurin activity, sensitivity to okadaic acid” value [2] was “not sensitive to further reduction”.
